According to ChEMBL document CHEMBL1201862, “PubChem BioAssay data set” (2004):
The source made the active and inactive calls.

Key:
[1] = target: T1, Short transient receptor potential channel 4 (Mus musculus, UniProt Q9QUQ5); experiment: calcium entry via TRPC4 opening agents – cell-based, HEK293 TRPC4/mu-opioid, Fluo-4 calcium, dose response (AID 434937); assay type: functional
T1 sequence (Q9QUQ5 whole entry): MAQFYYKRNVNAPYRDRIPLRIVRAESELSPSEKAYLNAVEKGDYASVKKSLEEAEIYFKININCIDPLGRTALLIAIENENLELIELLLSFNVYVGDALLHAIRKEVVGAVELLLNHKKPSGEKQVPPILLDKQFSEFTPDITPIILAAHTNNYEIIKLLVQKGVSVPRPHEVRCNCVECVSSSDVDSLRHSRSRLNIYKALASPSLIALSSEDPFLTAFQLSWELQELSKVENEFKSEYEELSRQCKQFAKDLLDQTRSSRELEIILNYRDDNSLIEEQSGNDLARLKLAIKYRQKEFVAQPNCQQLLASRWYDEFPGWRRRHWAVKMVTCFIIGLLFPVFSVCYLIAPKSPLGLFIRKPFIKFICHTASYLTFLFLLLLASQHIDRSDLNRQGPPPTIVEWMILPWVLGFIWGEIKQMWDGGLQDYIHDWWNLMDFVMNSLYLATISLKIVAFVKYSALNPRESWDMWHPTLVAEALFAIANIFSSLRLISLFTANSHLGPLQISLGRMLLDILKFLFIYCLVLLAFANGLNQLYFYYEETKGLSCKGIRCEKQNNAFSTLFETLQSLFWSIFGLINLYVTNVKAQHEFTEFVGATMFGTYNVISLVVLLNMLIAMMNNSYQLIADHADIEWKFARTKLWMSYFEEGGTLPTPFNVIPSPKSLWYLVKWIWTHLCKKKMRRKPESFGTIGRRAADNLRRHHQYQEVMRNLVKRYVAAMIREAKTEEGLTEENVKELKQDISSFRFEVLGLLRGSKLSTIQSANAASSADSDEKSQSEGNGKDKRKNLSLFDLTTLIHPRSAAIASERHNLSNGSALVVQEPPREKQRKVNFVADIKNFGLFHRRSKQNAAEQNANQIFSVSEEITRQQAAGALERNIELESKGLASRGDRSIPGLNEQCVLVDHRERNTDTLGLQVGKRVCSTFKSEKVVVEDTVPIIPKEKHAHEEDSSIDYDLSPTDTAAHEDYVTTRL

[2] = target: T2, High affinity choline transporter 1 (Homo sapiens, UniProt Q9GZV3); experiment: human choline transporter blockers, potency – cell-based, 5-point CRC, membrane potential dye, dose response (AID 504840); assay type: functional
T2 sequence (Q9GZV3 whole entry): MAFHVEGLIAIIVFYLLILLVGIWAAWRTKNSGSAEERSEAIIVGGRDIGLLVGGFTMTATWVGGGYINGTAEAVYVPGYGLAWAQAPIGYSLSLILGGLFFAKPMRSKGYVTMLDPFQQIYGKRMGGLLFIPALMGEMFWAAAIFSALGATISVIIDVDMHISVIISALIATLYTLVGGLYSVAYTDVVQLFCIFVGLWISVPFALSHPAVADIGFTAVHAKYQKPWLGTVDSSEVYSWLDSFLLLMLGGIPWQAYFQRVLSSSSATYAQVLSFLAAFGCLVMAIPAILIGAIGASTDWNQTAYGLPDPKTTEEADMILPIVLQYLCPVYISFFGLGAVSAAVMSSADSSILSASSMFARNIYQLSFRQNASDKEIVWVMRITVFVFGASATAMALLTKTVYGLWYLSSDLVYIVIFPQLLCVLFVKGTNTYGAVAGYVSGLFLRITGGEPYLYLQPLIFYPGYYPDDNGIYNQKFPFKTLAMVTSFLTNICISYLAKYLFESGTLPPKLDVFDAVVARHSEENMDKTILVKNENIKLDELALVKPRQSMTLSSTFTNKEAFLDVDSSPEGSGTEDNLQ

[3] = target: Dual specificity tyrosine-phosphorylation-regulated kinase 1A (Rattus norvegicus, UniProt Q63470); assay type: biochemical, Homo sapiens

| AC50 [3] | SMILES | EC50 [1] | IC50 [2] |
| --- | --- | --- | --- |
|  | N=C1C[N+](CC23CC4CC(CC(C4)C2)C3)=NO1 | 1.06 µM (active) | 13.5 µM (active) |
| 0.845 µM (active) | COc1ccc2[nH]c3c(c2c1)CCNC3=O |  |  |
| 13.4 µM (active) | CCCN(CCC)CCNC(=O)c1cc2c(=O)n(C)c3ccccc3c2n1C |  |  |
